Read-outs that look alike come from different tables or passages of the source.
Tests used:
[1] = system: A549 cell line; experiment: Proliferation of A549 (CellTiter Glo); type: cell-based; settings: read-out: IC50 μM (A549 Cell Line)
Procedure, shortened: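 A549 cells (K-Ras-mutant NSCLC) were seeded at 1,000 cells/well, allowed 24 h to settle, then exposed for 96 h to 3-fold serially diluted compound (final DMSO ≤0.25%). CellTiter Glo luminescence was read, and inhibition was calculated relative to DMSO-only wells. IC50, relative IC50 and % top inhibition came from curve fitting.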

[2] = target: T1, C1b domain of human PKCε (Homo sapiens, UniProt Q02156); experiment: biochemical; type: binding; settings: 3H-PDBu competition
T1 construct: Genes encoding C1b domains of human PKCα, δ, ε, θ, and PKD1 (PKCμ) were synthesized; made in house; host or cells: E. coli BL21(DE3)
Procedure, shortened: (§1)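 First, the E. coli-produced human GST-C1b protein was mixed with compound and 3H-PDBu and shaken 10 min at 37° C. Next, the plate sat on ice 20 min before filtration and scintillation counting of bound tracer. Finally, IC50 fits were transformed into Ki values.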

[3] = target: T2, C1b domain of human PKCθ (Homo sapiens, UniProt Q04759); experiment: biochemical; type: binding; settings: 3H-PDBu competition
T2 construct: Genes encoding C1b domains of human PKCα, δ, ε, θ, and PKD1 (PKCμ) were synthesized; made in house; host or cells: E. coli BL21(DE3)
T2 sequence (Q04759 231-281 limits assumed): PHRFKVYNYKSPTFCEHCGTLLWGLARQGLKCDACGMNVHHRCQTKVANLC
Procedure, shortened: as §1

[4] = target: T3, C1b domain of human PKCα (Homo sapiens, UniProt P17252); experiment: biochemical; type: binding; settings: 3H-PDBu competition
T3 construct: Genes encoding C1b domains of human PKCα, δ, ε, θ, and PKD1 (PKCμ) were synthesized; made in house; host or cells: E. coli BL21(DE3)

[5] = target: T4, C1b domain of human PKD1 (PKCμ) (Homo sapiens, UniProt Q15139); experiment: Competitive 3H-PDBu binding assay, C1b domain of PKD1 (PKCμ); settings: 3H-PDBu competition
T4 construct: Genes encoding C1b domains of human PKCα, δ, ε, θ, and PKD1 (PKCμ) were synthesized; made in house; host or cells: E. coli BL21(DE3)
T4 sequence (Q15139 270-320 limits assumed): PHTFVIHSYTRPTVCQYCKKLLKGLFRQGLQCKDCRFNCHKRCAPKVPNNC
Procedure: Compounds described in this disclosure were tested for binding affinity to C1b domain of PKC isoforms. Compound binding affinity to C1b domain of PKC isoforms was derived from competitive binding assay using radioactive tracer ^3H-PDBu and recombinant GST-C1b or full-length of human PKC proteins based on modified procedures from Methods in Molecular Biology, vol.
Genes encoding C1b domains of human PKCα, δ, ε, θ, and PKD1 (PKCμ) were synthesized and inserted into pGEX-2TK or pGEX-4T1 vectors for expression and production of GST-C1b proteins in E. coli BL21(DE3) via IPTG induction. The target proteins were purified by glutathione sepharose 4B and followed by ion exchange chromatography if needed to achieve purity >70%. Aliquots of the purified proteins were stored at −80 degree for binding assay (storage buffer: 20 mM Tris pH 8.0, 200 mM NaCl, 10% glycerol, 1 mM DTT).
The plate was incubated at 37° C. on a shaker at 300 rpm for 10 minutes and then put on ice for 20 minutes. […] The bottom of the filter plate was sealed and 50 μL of MicroScint-20 (PerkinElmer) cocktail was added to each well. ^3H-PDBu trapped in each well was counted using PerkinElmer MicroBeta2 Reader. Data were analyzed using GraphPad Prism5 with the model “log(inhibitor) vs. response-variable slope” to fit the IC50, and then IC50 was transformed to Ki using Cheng-Prusoff equation: Ki=IC50/(1+added radio ligand/Kd). Kd is the binding affinity of each protein preparation to ^3H-PDBu, determined experimentally.

[6] = target: T5, C1b domain of human PKCδ (Homo sapiens, UniProt Q05655); experiment: biochemical; type: binding; settings: 3H-PDBu competition
T5 construct: Genes encoding C1b domains of human PKCα, δ, ε, θ, and PKD1 (PKCμ) were synthesized; made in house; host or cells: E. coli BL21(DE3)
Procedure, shortened: as §1

[7] = system: NFκB-driven transcription in HeLa-NFκB luciferase reporter cell line; experiment: NFκB luciferase reporter assay
[8] = system: HL-60 (Leukemia); experiment: Proliferation of HL-60; type: cell-based
[9] = system: phosphorylation of PKCμ, PKCδ and Erk1/2 in A549 lung cancer cells; experiment: Western blot of activation of PKC and downstream target protein in A549 cells; type: cell-based; settings: 30 minutes
Procedure: According to the methods described in patent (WO/2017/083783) A549 lung cancer cells (˜3 million cells) were seeded in 10 cm tissue culture dishes (or ˜1 million cells in 6 cm dish) and grown overnight. Cells were then treated with different drugs at indicated concentrations for 30 minutes. Cell lysate preparation, protein quantitation, SDS-PAGE, and Western blotting procedures are described (WO/2017/083783). β-actin or Vinculin was used as loading controls. Imagequant LAS4000 (GE) was used to scan membranes if secondary antibodies anti-mouse IgG HRP conjugate or anti-rabbit IgG HRP conjugate (dilutions from 1:2000-1:10000) were used. For ProteinSimple Wes system, manufacture's procedure was followed (ProteinSimple 12-230 kDa Wes Separation Module) for sample preparation, loading, running, and data analysis.
Phosphorylation of these sites has been linked to acute activation or catalytic activity of the PKC isoforms and Erk1/2. High level of phosphorylation indicates strong activation.
A subset of the diterpenoid compounds with good binding affinity to novel PKC isoforms and PKCμ was tested at two different concentrations in A549 cells to assess activation of PKCμ, PKCδ, and Erk1/2 by Western blot analysis. In addition to the phospho-specific antibodies described above, an additional phospho-specific antibody P-PKCδ (S299) (Abcam cat #133456) was also used. This antibody has been shown in the literature (Durgan et al., FEBS Lett. 2007, 581(18):3377-81, Novel phosphorylation site markers of protein kinase C delta activation) to be able to detect activation of PKCδ. K-101 (prostratin, 1 μM) was included as reference compounds.

[10] = system: Mino (Lymphoma); experiment: Proliferation of Mino; type: cell-based; settings: for IC50: read-out: IC50 Mino (Lymphoma)
Procedure, shortened: (§2)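 Cells seeded per line (KP-4 800-1000, Panc2.13 3000, Namalwa and Mino 5000-10000 cells/well), 24 h at 37° C, then 96 h with 3-fold serial dilutions of compound, final DMSO ≤0.25%. CellTiter Glo luminescence read; % inhibition vs DMSO-only max, IC50 fitted. Potency also normalized as ratio to comparator K101 across batches.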

[11] = system: Namalwa (Lymphoma); experiment: Proliferation of Namalwa; type: cell-based; settings: for IC50: read-out: IC50 Namalwa (Lymphoma)
Procedure, shortened: as §2

[12] = system: KP-4 (Pancreatic); experiment: Proliferation of KP-4; type: cell-based; settings: read-out: IC50 KP-4 (Pancreatic)
Procedure: (§3) The diterpenoid compounds were tested in A549, a non-small cell lung cancer cell line harboring a K-Ras activating mutation. Briefly, A549 cells at a density of 1,000 cells/well were seeded in 96-well plates and incubated at 37° C. for 24 hours. A series of different concentrations of compound stocks (500×) were prepared by 3-fold serial dilution in DMSO. These compounds were further diluted in culture media and then added to cells so that the final DMSO concentration was not exceeding 0.25%. After 96 hours of incubation, 50 μL of CellTiter Glo reagent (Promega) was added to each well and luminescence was measured after 10 minutes using EnVision (PerkinElmer). Luminescence from cells treated with DMSO alone was set as Max and % of inhibition was calculated as follows: Inhibition %=(Max-Sample value)/Max×100. Data was analyzed using XL-fit software (ID Business Solutions Ltd.) and IC50, relative IC50, and % of top inhibition was calculated. Some of the compounds in this disclosure were very potent in blocking proliferation of A549 lung cancer cells at low nM range. In addition, potency of inhibiting A549 proliferation correlated well with its binding affinity to PKCs for this series of compounds. In other words, higher affinity binders had stronger inhibitory effects on A549 proliferation. This further support the notion that activation, rather than inhibition, of certain PKC isoforms is required to block proliferation of cancer cells, some of which may harbor K-Ras mutations. This is in sharp contrast to previous literature and common belief that inhibition of PKC is necessary to block cancer cell growth (Kang, 2014, New Journal of Science, 2014:1-36). Data presented here is in agreement with recent findings that many loss-of-function but not gain-of-function mutations of PKC isoforms have been identified in many human cancers (Antal et al., 2015, Cell, 160:489-502).
(§4) The compounds in this disclosure were tested for their potency in blocking proliferation of a few other cancer cells lines, including K-Ras mutant pancreatic cell lines Panc2.13 and KP-4, leukemia cell line HL-60, and lymphoma cell lines Namalwa and Mino. Similar procedures as in Example 67 were followed. Initial cell numbers seeded in 96-well plates were different for different cell lines: 3000 cells/well for Panc2.13; 800-1000 cells/well for KP-4; 5000 cells/well for HL-60; 5000-10000 cells/well for Namalwa and Mino. A ratio of (IC50 of K101)/(IC50 of compound) (data in parenthesis in Table 5) was used to normalize the compound potency from different assay batches to a common comparator K101.

[13] = system: Panc2.13 (Pancreatic); experiment: Proliferation of Panc2.13; type: cell-based; settings: for IC50: read-out: IC50 Panc2.13 (Pancreatic)
Procedure: as §3, §4

[14] = Homo sapiens, A549, 96 hours, CellTiter Glo
[15] = Homo sapiens, HeLa, 16 h, read-out: NFκB-luc HeLa cells EC50 (μM)

T5 sequence (Q05655 230-280 limits assumed): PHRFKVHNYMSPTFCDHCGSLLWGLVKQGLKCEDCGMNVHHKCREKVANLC
T1 sequence (Q02156 242-292 limits assumed): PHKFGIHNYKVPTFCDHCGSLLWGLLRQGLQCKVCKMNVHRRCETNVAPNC

Compound	IC50 ([1]; Homo sapiens, A549, 96 h) [µM]	Ki [2] [nM]	Ki [3] [nM]	Ki [4] [nM]	IC50 [1, 14] [µM]	Ki [5] [nM]	Ki [6] [nM]	EC50 [7, 15] [µM]	ratio (IC50 of K101)/(IC50 of compound) HL-60 [8]	ratio (IC50 of K101)/(IC50 of compound) Mino [10]	IC50 ([10]; Homo sapiens, MINO) [nM]	ratio (IC50 of K101)/(IC50 of compound) Namalwa [11]	IC50 [11] [nM]	IC50 [12] [nM]	ratio (IC50 of K101)/(IC50 of compound) Panc2.13 [13]	IC50 [13] [nM]	other results
CC1=C[C@H]2[C@@]3(O)[C@H](C)C[C@]4(OC(=O)[C@@H](N)CCCCCCc5ccc(C(F)(F)F)cc5)[C@H]([C@@H]3C=C(CO)C[C@]2(O)C1=O)C4(C)C	0.01 to 0.03	10 to 30	10 to 30	60 to 100	–	–	–	–	–	–	–	–	–	–	–	–	–
CC1=C[C@H]2[C@@]3(O)[C@H](C)C[C@]4(OC(=O)[C@@H](N)CCc5ccc(C(F)(F)F)cc5)[C@H]([C@@H]3C=C(CO)C[C@]2(O)C1=O)C4(C)C	–	–	–	200 to 400	0.1 to 0.2	< 5	10 to 30	–	–	–	–	–	–	–	–	–	–
CC1=C[C@H]2[C@@]3(O)[C@H](C)C[C@]4(OC(=O)[C@@H](N)C/C=C/c5ccccc5)[C@H]([C@@H]3C=C(CO)C[C@]2(O)C1=O)C4(C)C	–	–	–	100 to 200	0.06 to 0.1	< 5	5 to 10	–	–	–	–	–	–	–	–	–	–
CC1=C[C@H]2[C@@]3(O)[C@H](C)C[C@]4(OC(=O)CCc5ncc(-c6ccc(Cl)cc6)o5)[C@H]([C@@H]3C=C(CO)C[C@]2(O)C1=O)C4(C)C	0.03 to 0.06	–	–	60 to 100	–	–	–	0.1 to 0.2	5.71	5.36	10 to 30	1.15	30 to 60	–	–	–	IC50 ([8]; Homo sapiens, HL-60, 96 h, read-out: IC50 HL-60 (Leukemia)): 100 to 600 nM; phosphorylation of PKCμ, PKCδ and Erk1/2 ([9]; 0.3 μM): induced high levels of phosphorylation
CC1=C[C@H]2[C@@]3(O)[C@H](C)C[C@]4(OC(=O)[C@@H](N)Cc5ccccc5)[C@H]([C@@H]3C=C(CO)C[C@]2(O)C1=O)C4(C)C	–	100 to 200	30 to 60	400 to 800	–	10 to 30	30 to 60	–	0.9	0.57	–	0.19	200 to 600	600 to 1000	0.75	1000 to 2000	EC50 ([7]; read-out: NFκB-luc HeLa cells EC50, 16h): 0.2 to 0.6 µM; IC50 ([8]; read-out: IC50 HL-60 (Leukemia)): 200 to 600 nM; phosphorylation of PKCμ, PKCδ and Erk1/2 ([9]; 3 μM): induced phosphorylation; IC50 ([1]; 96 hours, CellTiter Glo): 0.6 to 1 µM; IC50 [10]: 100 to 200 nM
CC/C=C\C/C=C\C/C=C\C/C=C\C/C=C\C/C=C\CCC(=O)O[C@@]12C[C@@H](C)[C@@]3(O)[C@@H](C=C(CO)C[C@]4(O)C(=O)C(C)=C[C@@H]34)[C@@H]1C2(C)C	0.001 to 0.01	10 to 30	–	60 to 100	–	–	–	0.001 to 0.01	80	82.5	< 1	20.9	1 to 10	1 to 10	157	1 to 10	IC50 ([8]; Homo sapiens, HL-60, read-out: IC50 HL-60 (Leukemia)): 1 to 10 nM
